{
  "source": "patent US12102685B2",
  "about": "“Immodulator peptides covalently modified with small molecules” (priority 2020, dated 2024)",
  "key": {"[1]": {"assay": "FITC-PI(4,5)P2 binding to plate-bound peptide with calcium (x9A)", "protocol": "Immodulator peptides IM1, IM3 and IM5 (400 ng/well) in PBS were bound to streptavidin-coated 96-well plates at room temperature for 60 minutes, in the presence or absence of 500 uM calcium chloride. Each well also received 200 ng cold PPI plus 10 ng FITC-labeled PI(4,5)P2 or PI(4)P1. The tables below show the relative fluorescence (with/without calcium background) expressed as a percentage of the highest binder, FITC-PI(4,5)P2+cold PI(3,5)P2, which was 2,496 fluorescence units. Background binding without calcium was, in all cases, 200-300 fluorescence units."}, "[2]": {"assay": "Alexa488-SA-labelled IM1-IM6 binding to metal-charged NTA-coated plate (x2B d)", "settings": "no peptide background = 1.0", "protocol": "NTA-metal-affinity fluorescence assay was performed using 96-well NTA-metal-coated plates readily available from commercial sources such as Qiagen (Germantown, MD). NTA was charged with ferrous or ferric iron, zinc, copper, calcium, vanadium, ruthenium, cobalt, titanium, manganese or other metals. 400 ng of FITC-labeled immodulator peptide (or biotinylated immodulator peptide complexed to Alexa-488-labeled streptavidin) in PBS buffer was added per plate. After incubation at room temperature for 60 minutes, excess peptide was washed off and peptide was detected by measuring fluorescence (excitation 490 nm, emmission 525 nm) in a fluorometer. • (a) Using FITC-labeled IM3 peptide (1 ug/well) in the fluorescent binding assay: • EDTA-treated control: 2,251±1,186 • Ferrous iron: 170,441±11,264 (p<0.001)* • Copper: 13,644±5566 (p<0.05)* • Calcium: 48,822±11,990 (p<0.01)* • *p values are relative to EDTA-treated control • (b) Competition binding assay to ferrous iron, calcium, copper and zinc-charged NTA-coated plates using FITC-labeled IM3 peptide (0.5 uM) and 8× (4 uM) unlabelled competitor peptides IM3N1, IM3N2 (*all comparisons to PBS control are p<0.01); # fluorescent value of binding to […] was set at 100.\nFerrous iron # (100±2.6*); Control (no metal): 6.4±3.1; Ferric iron: 94.1±6.6*; Calcium: 47.6±3.7*; Vanadium: 53.9±5.5*; Manganese: 54.4±11.2*; Cobalt: 25.4±2.3*; Copper: 58.4±6.4*; Zinc: 71.4±8.3*; Ruthenium: 67.8±8.3*; (d) Alexa488-SA-labelled immodulator peptide IM1, IM2, IM3, IM4, IM5, IM6 (400 ng/well) were bound to NTA-coated plate charged with the indicated metals: # background (no peptide) control set to 1.0;*p<0.05, **p<0.01 vs “no peptide”"}, "[3]": {"assay": "Iron binding of separately labeled peptides (x2E e)", "settings": "each peptide labeled separately; IM3 = 100; ferric iron", "how_it_was_run": "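Fe3+-charged NTA-coated plates were incubated 60 min at room temperature with peptide complexed to Alexa-488-streptavidin in PBS, and fluorescence was read at 485/525 nm. Competition used 375 ng/well labeled IM3 (c) or IM3AVD (d) plus 10× unlabeled competitor, with no-competitor set to 100. Separately labeled peptides (e) were normalized to IM3 = 100.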"}, "[4]": {"assay": "Binding to heparin-agarose spin column (x3D)", "settings": "1 ug SA488-labelled peptide", "protocol": "1 ug Streptavidin-Alexa 488 conjugate (SA488)-labelled IM peptide in PBS buffer was loaded on a spin column packed with 0.2 ml bed volume heparin-agarose (G-Biosciences, St. Louis, MO). The column was centrifuged for 2 min at 2,000 G and the flow-through was collected. The column was then washed with 0.3 ml 1% BSA in PBS buffer and the column spin repeated. Flowthrough and wash were pooled and duplicate 20 uL aliquots counted in a standard fluorometer (excitation/emission 485/525 nm). Results are expressed as percentage of input counts that bound the heparin-agarose column, versus flowthrough. Percent counts bound to heparin-agarose resin are shown below. IM3, IM5 and IM6 peptides bind heparin-agarose in this assay."}},
  "note": "Marks after values point to notes of the source that are not given here. Peptide text beside a SMILES is read from it.",
  "data": [
    {"smiles": "N=C(N)NCCC[C@H](NC(=O)CNC(=O)[C@H](CCCCN)NC(=O)[C@H](CO)NC(=O)[C@@H]1CCCN1C(=O)[C@H](CCCNC(=N)N)NC(=O)[C@H](CS)NC(=O)[C@H](CCC(N)=O)NC(=O)[C@H](CCCCN)NC(=O)[C@H](CCCCN)NC(=O)[C@H](CCCCN)NC(=O)[C@H](Cc1ccc(O)cc1)NC(=O)[C@H](Cc1ccccc1)NC(=O)CNC(=O)[C@H](CCCCN)NC(=O)[C@@H](N)CCCCN)C(=O)N[C@@H](CCCCN)C(=O)N[C@@H](CCCNC(=N)N)C(=O)NCC(=O)N[C@@H](Cc1ccccc1)C(=O)N[C@@H](CS)C(=O)N[C@@H](Cc1c[nH]c2ccccc12)C(=O)O", "note": "[IM3] (H-KKGFYKKKQCRPSKGRKRGFCW-OH; N-terminus and C-terminus assumed)", "values": [
      {"measurement": "fluorescence of the highest binder", "setting": "[1]; FITC-PI(4,5)P2 + cold PI(3,5)P2, calcium", "result": "2,496 fluorescence units"},
      {"measurement": "relative fluorescence, FITC-PI(4,5)P2 bound", "setting": "[1]; cold PPI: 3,4,5-P3, calcium", "result": "3.2 percentage of the highest binder"},
      {"measurement": "relative fluorescence, FITC-PI(4,5)P2 bound", "setting": "[1]; cold PPI: 3,4-P2, calcium", "result": "51.5 percentage of the highest binder"},
      {"measurement": "relative fluorescence, FITC-PI(4,5)P2 bound", "setting": "[1]; cold PPI: 3,5-P2, calcium", "result": "100.0 percentage of the highest binder"},
      {"measurement": "relative fluorescence, FITC-PI(4,5)P2 bound", "setting": "[1]; cold PPI: 3-P1, calcium", "result": "1.7 percentage of the highest binder"},
      {"measurement": "relative fluorescence, FITC-PI(4,5)P2 bound", "setting": "[1]; cold PPI: 4,5-P2, calcium", "result": "63.7 percentage of the highest binder"},
      {"measurement": "relative fluorescence, FITC-PI(4,5)P2 bound", "setting": "[1]; cold PPI: 4-P1, calcium", "result": "6.3 percentage of the highest binder"},
      {"measurement": "relative fluorescence, FITC-PI(4,5)P2 bound", "setting": "[1]; cold PPI: 5-P1, calcium", "result": "10.4 percentage of the highest binder"},
      {"measurement": "relative fluorescence, FITC-PI(4,5)P2 bound", "setting": "[1]; cold PPI: None, 500 uM calcium chloride", "result": "2.2 percentage of the highest binder"},
      {"measurement": "fluorescence", "setting": "[2]; Calcium", "result": "28.7 ± 0.7**"},
      {"measurement": "fluorescence", "setting": "[2]; Copper", "result": "6.2 ± 0.2**"},
      {"measurement": "fluorescence", "setting": "[2]; Ferrous iron, 400 ng/well", "result": "24.7 ± 1.6**"},
      {"measurement": "fluorescence", "setting": "[2]; Zinc", "result": "32.0 ± 0.7**"},
      {"measurement": "fluorescence of labeled peptide", "setting": "[3]", "result": "100.0±16.8"},
      {"measurement": "Percent Flowthrough", "setting": "[4]", "result": 2.3, "unit": "%"},
      {"measurement": "Percent retained", "setting": "[4]", "result": 97.7, "unit": "%"}
    ]}
  ]
}
